# Tests used:
# KS cells [1] = assay: KS cell adhesion to fibronectin; assay type: cell-based, human
# KS cells [2] = assay: KS cell invasion of matrigel, Boyden chamber, bFGF chemo-attractant; assay type: cell-based, human; conditions: KS3, KS8, KS12 strains; dose-dependent
# Experimental: Both drugs inhibited the capacity of the KS cells to invade the Matrigel membrane in a dose-dependent manner. In particular, both the HIV-PI inhibited invasion as compared to the levels observed in control KS cells (p<0.05).
# The assay was performed as described in FIG. 3. […] The cells were harvested and then plated in duplicate (5×10^5 in a culture medium containing 0.05% BSA) in the upper compartment of the Boyden chamber, always in the presence of HIV-PI or buffer. bFGF (20 ng/ml) was placed in the bottom compartment as a chemo-attractant.
# After 6 hours the cells that invaded the matrigel membrane were stained and counted as described in the key to FIG. 3.
# In contrast, both drugs inhibited KS cell capability of invading a matrigel substrate in a dose-dependent manner. In particular, both HIV-PI inhibit the invasion of KS cells by 30-40% (p<0.05) (Table 4 and FIG. 13).
# Migration and invasion assays were carried out essentially as detailed in the key to FIGS. 2 and 3.
# [3] = system: endothelial/lung carcinoma hybrid (Ea-hy 926) cells; assay: Cell growth assay of Ea-hy 926 cells; assay type: cell-based, human; conditions: 1 μM; 5 days
# Experimental: The assays have been performed essentially as described in key to FIG. 1. No growth factors were added to EA-hy 926 cells since they produce factors which mediates cell growth in autocrine fashion (Edgell et al., 1983, Albini et al., PNAS 1995, Albini et al., Nat Med 1996). […] The assays have been performed essentially as described in legend to FIG. 3. Average and variation range of two independent experiments each performed in duplicate are shown.
# [4] = system: hepato-carcinoma cells (SK-Hep-1); assay: Cell growth assay of SK-Hep-1 cells; assay type: cell-based, human; conditions: 10 μM; 4 days
# Experimental: FIG. 16. […] Shown is the result of a representative cell growth assay performed on the hepato-carcinoma cells. Human hepato-carcinoma cells (SK-Hep-1; from ATCC) were plated in triplicate (8×10^4 cells/well) in 12-well plates. […] After 4 days of culture, the cells were counted by trypan blue dye staining, as previously described (Ensoli et al., 1990; Ensoli et al., 1994b): For all the in vitro studies HIV-PI as endotoxin-free pure powder (a kind gift of Merck Sharp & Dohme and Roche) were resuspended in distilled water. Assays were repeated at least three times.
# [5] = system: hepato-carcinoma (SK-Hep-1) cells; assay: Invasion assay of SK-Hep-1 cells in response to bFGF; assay type: cell-based, human; conditions: 0.1, 1 or 10 μM
# Experimental: The invasion assays were performed in the Boyden chamber. Polycarbonate filters ([…]; Nucleoprobe, Cabin John, Md.) were coated first with collagen IV and then with Matrigel (Collaborative Biomedical Products) as described previously (Barillari et al., 1999b). […] Human recombinant bFGF (50 ng/ml) was placed in the lower compartment as chemo-attractant. […] Louis, Mo.). Ten random filter fields were counted by light microscopy as described previously (Barillari et al., 1999b).
# [6] = system: lung carcinoma cells (A549); assay: Cell growth assay of A549 cells; assay type: cell-based, human; conditions: 10 μM; 4 days
# Experimental: Shown is the result of a representative cell growth assay performed on the lung carcinoma cells. Human lung carcinoma cells (A549; ATCC) were plated in triplicate (8×10^4 cells/well) in 12-well plates. […] Ensoli et al., 1994b): For all the in vitro studies HIV-PI as endotoxin-free pure powder (a kind gift of Merck Sharp & Dohme and Roche) were resuspended in distilled water. Assays were repeated at least three times.
# [7] = system: breast carcinoma (MDA-MB468) cells; assay: Invasion assay of MDA-MB468 cells in response to bFGF; assay type: cell-based, human; conditions: 0.1, 1 or 10 μM
# Experimental: Shown is the result of a representative invasion assay performed on the breast carcinoma cells MDA-MB468. […] The invasion assays were performed in the Boyden chamber. Polycarbonate filters ([…]; Nucleoprobe, Cabin John, Md.) were coated first with collagen IV and then with Matrigel (Collaborative Biomedical Products) as described previously (Barillari et al., 1999b). […] Human recombinant bFGF (50 ng/ml) was placed in the lower compartment as chemoattractant. […] Louis, Mo.). Ten random filter fields were counted by light microscopy as described previously (Barillari et al., 1999b). Assays were repeated two times.
# [8] = system: angioproliferative KS-like lesions induced by KS cells; assay: KS-like lesions induced by inoculation of KS cells in nude mice (drug pre-treatment); assay type: in vivo; conditions: KS cells 3×10^6; treatment starting 2 days before cell inoculation
# Excerpt: At the time of sacrifice, the sites of inoculation were examined to check for the presence of macroscopic angioproliferative lesions as described in the key to FIG. 12 and Table 5.
# These angioproliferative lesions are transient, of murine origin and are developed in response to cytokines, such as bFGF and VEGF, IL-1, IL-6 and others, released by the KS cells (Ensoli et al., 1989; Ensoli et al., 1994a; Ensoli et al., 1994b; Fiorelli et al., 1995; Samaniego et al., 1995; Samaniego et al., 1997; Sgadari et al., 2000). In fact, at least in initial phase, KS is a reactive angioproliferative diseases and not a true neoplasm (Ensoli and Sturzl, 1998).
# At the time of sacrifice, the sites of inoculation were examined to check for the presence of macroscopic angioproliferative KS-like lesions as described in the key to Table 1. Here are listed the number (No.) of mice that developed lesions with respect to the number (No.) of mice inoculated, and the percentage (%) of mice that developed lesions.
# [9] = system: lesions promoted by bFGF and HIV-1 Tat combined; assay: KS-like lesions promoted by bFGF and HIV-1 Tat combined in nude mice; assay type: in vivo; conditions: bFGF 1 μg + Tat 10 μg
# Excerpt: Here are listed the number (N.) of mice that developed lesions with respect to the number (N.) of mice inoculated, and the percentage (%) of mice that developed lesions.
# [10] = system: T cell leukaemia (Jurkat) cells; assay: Tumour lesions induced by Jurkat cells in nude mice; assay type: in vivo; conditions: 20×10^6 cells/site; daily treatment
# Experimental: The treatment with HIV-PI or saline solution continued until sacrifice. The size of the lesions present at the injection site was evaluated daily by caliper measurement. External lesion area was then calculated as the product of the two major lesion diameters. The mean size (cm^2) of the lesions present at the injection site is shown.
# To determine whether HIV-PI could inhibit the growth of malignant solid and lymphoid tumours, nude mice were inoculated with hepato-carcinoma cells (SK-Hep-1), lung carcinoma cells (A549), breast adeno-carcinoma cells (MDA-MB-468), myelo-monocytic leukaemia cells (U937), and T lymhocytic leukaemia cells (Jurkat).
Structure (SMILES),capability of the KS cells to adhere to a substrate of fibronectin (KS cells [1]),invasive capacity of KS cells (KS cells [2]),proliferation [3],proliferation [4],invasive capacity in response to bFGF [5],proliferation [6],invasive capacity in response to bFGF [7],No. of mice with macroscopic lesions/No. of inoculated mice [8],mice with macroscopic lesions (%) [8] [%],No. of macroscopic vascular lesions/No. of mice injected [9],mice that developed lesions (%) [9] [%],development of tumour lesions (lesion size) [10]
"CC(C)(C)NC(=O)[C@@H]1CN(Cc2cccnc2)CCN1C[C@@H](O)C[C@@H](Cc1ccccc1)C(=O)N[C@H]1c2ccccc2C[C@H]1O [Indinavir, indinavir]",do not inhibit,inhibit,do not interfere,do not interfere,inhibit,do not interfere,inhibit,7/16,43,5/10,50,inhibit
"CC(C)(C)NC(=O)[C@@H]1C[C@@H]2CCCC[C@@H]2CN1C[C@@H](O)[C@H](Cc1ccccc1)NC(=O)[C@H](CC(N)=O)NC(=O)c1ccc2ccccc2n1 [Saquinavir, saquinavir]",do not inhibit,inhibit,do not interfere,do not interfere,inhibit,do not interfere,inhibit,4/16,25,2/10,20,inhibit

# From patent publication US20060088545A1, “Use of inhibitors of the protease of the human immunodeficiency virus (hiv) to block cell migration and/or invasion, tissue infiltration and oedema for the therary of diseases associated therewith” (priority 2001, published 2006)
